We go through one compound from publication PMC6566874, “Comparative study of the antidiabetic potential of Paederia foetida twig extracts and compounds from two different locations in Malaysia” (Pharmaceutical Biology, 2019).

The target of the assay is T1, α-amylase.
T1 construct: PDB 4W93 was used for docking only
The assay can be described thus: iodine-starch absorbance assay, […] nm. The format is biochemical. Particulars: soluble starch substrate, 0.1 M sodium phosphate buffer, 37 °C, 15 min preincubation; read-out: α-Amylase inhibition activity IC50 (μg/mL) / Pahang (PFP).

For the compound `COc1cc2ccc(=O)oc2cc1O` [compound 1, scopoletin], the IC50 was 52 ± 130 nM.
